Source: patent publication US10266544B2, “Aryl substituted aminomethyl spectinomycin analogs as antibacterial agents” (ST. JUDE CHILDREN'S RESEARCH HOSPITAL, INC., priority 2013, dated 2019)
Converted amounts (≈) assume the structure as drawn. Counter-ions that a name gives are not always drawn. Like-named read-outs stand apart in the source and are kept apart here.

Assays:
Format in all cases: cell-based
[1] = test system: Proteus mirabilis (ATCC 25933); test: MIC determination, microbroth dilution; details: ATCC25933
[2] = test system: Burkholderia cepacia (ATCC 25416); test: MIC determination, microbroth dilution; details: Burkholderia cepacia
[3] = test system: acinetobacter baumannii (ATCC 19606); test: MIC determination, microbroth dilution; details: ATCC19606
[4] = test system: Staphylococcus aureus (ATCC 29213); test: MIC determination, microbroth dilution
[5] = test system: Haemophilus influenza (ATCC 49247); test: microbe, parasite or virus in culture; details: ATCC49247; Haemophilus influenza; 4 μg per disc; range of at least two experiments; read-out: Zone of inhibition H.i.
[6] = test system: Bacillus subtilis (ATCC 23857); test: MIC determination, microbroth dilution; details: ATCC23857; Bacillus subtilis (ATCC 23857); read-out: MIC B.s.
[7] = test system: Klebsiella pneumoniae (ATCC 33495); test: MIC determination, microbroth dilution; details: ATCC33495
[8] = test system: E. coli K12 ΔtolC; test: microbe, parasite or virus in culture; details: Escherichia coli, read-out: MIC E.c. Δtolc
[9] = test system: Proteus vulgaris (ATCC 33420); test: MIC determination, microbroth dilution; details: ATCC33420
[10] = test system: Legionella pneumophila (ATCC 33153); test: microbe, parasite or virus in culture; details: ATCC33153, 72 h, read-out: Zone of inhibition L.p.
[11] = test system: Stenotrophomonas maltophilia (ATCC 13637); test: MIC determination, microbroth dilution; details: ATCC13637; Stenotrophomonas maltophilia (ATCC 13637); read-out: MIC S.m.
[12] = test system: M. tuberculosis clinical isolates; test: microbe, parasite or virus in culture; details: Mycobacterium tuberculosis
[13] = test system: MRSA, Staphylococcus aureus (NRS70); test: MIC determination, microbroth dilution; details: read-out: MIC MRSA
[14] = test system: Escherichia coli (ATCC 700926); test: MIC determination, microbroth dilution; details: ATCC700926; Escherichia coli (ATCC 700926); read-out: MIC E.c.
Method: MICs were determined using the microbroth dilution method according to Clinical Laboratory Standards Institute (CLSI; National, C. F. C. L. S., Methods for Dilution Antimicrobial Susceptibility Tests for Bacteria Grow aerobically-Seventh Edition: Approved Standard M7-A7, CLSI, Wayne, Pa., USA, 2008) and were read by visual inspection. Two fold serial dilutions of antibiotic in 100 μL of the appropriate broth media were first prepared in 96-well round bottom microtiter plates (Nalge Nunc International, Rochester, N.Y., USA). An equivalent volume (100 μL) of bacterial broth inocula containing approximately 10^5 bacterial cfu/mL was added to each well to give final concentrations of drug starting at 200 μg/mL and the plates were incubated aerobically at 37° C. M. tuberculosis microtiter plates were incubated for 7 days and all other strains were incubated overnight. After incubations, in all cases the MIC was recorded as the lowest concentration of drug that prevented bacterial growth.

[15] = test system: Streptococcus pneumoniae (R6); test: MIC determination, microbroth dilution; details: Streptococcus pneumoniae (R6); read-out: MIC S. pn.
[16] = test system: Pseudomonas aeruginosa (PA01); test: MIC determination, microbroth dilution
[17] = test system: Neisseria gonorrhoeae (ATCC 49226); test: Disc diffusion assay; details: ATCC49226, 4 μg per disc, read-out: Zone of inhibition N.g.
[18] = test system: Bacillus anthracis, Sterne 34F2; test: microbe, parasite or virus in culture; details: STERNE34F2, read-out: MIC B.a.
[19] = test system: Streptococcus pyogenes (ATCC 700294); test: MIC determination, microbroth dilution; details: ATCC700294; Streptococcus pyogenes (ATCC 700294); read-out: MIC S. py.
[20] = test system: Bacillus anthracis; test: microbe, parasite or virus in culture; details: read-out: MIC B.a.
[21] = test system: Enterococcus faecalis (ATCC 33186); test: MIC determination, microbroth dilution
[22] = test system: Neisseria meningitides (ATCC 13077); test: Disc diffusion assay; details: ATCC13077, 4 μg per disc, read-out: Zone of inhibition N.m.
[23] = ATCC25416, read-out: MIC B.c., Burkholderia cepacia (ATCC 25416)
[24] = ATCC29213, Staphylococcus aureus (ATCC 29213), read-out: MIC S.a.
[25] = ATCC25416, read-out: MIC B.c., Burkholderia cepacia, Table 6
[26] = Staphylococcus aureus, ATCC29213, read-out: MIC S.a.
[27] = ATCC33186, Enterococcus faecalis (ATCC 33186), read-out: MIC E.f.

SMILES | MIC [1] [µg/mL] | MIC [2, 23] [µg/mL] | MIC [3] [µg/mL] | MIC [4, 24] [µg/mL] | zone of inhibition at 4 µg/disc [5] [mm] | MIC [6] [µg/mL] | MIC [7] [µg/mL] | MIC [8] [µg/mL] | MIC [9] [µg/mL] | zone of inhibition at 4 µg/disc [10] [mm] | MIC [11] [µg/mL] | MIC ([12]; H37RV, read-out: MIC H37Rv) [µg/mL] | MIC ([13]; Staphylococcus aureus (NRS70)) [µg/mL] | MIC [14] [µg/mL] | MIC [15] [µg/mL] | MIC [16] [µg/mL] | zone of inhibition at 4 µg/disc [17] [mm] | MIC [18] [µg/mL] | MIC [19] [µg/mL] | MIC [2, 25] [µg/mL] | other results
CN[C@@H]1[C@H](O)[C@H](NC)[C@H]2O[C@]3(O)[C@H](O[C@@H]2[C@H]1O)O[C@H](C)C[C@@]3(O)CNc1ccc(F)cc1 [compound 31, 3′-(R)-3′-[(4-fluoro)phenylaminomethyl)]dihydrospectinomycin Trihydrochloride] | > 200 | > 200 | > 200 | 200 | 6 | 200 | > 200 | 50 to 100 | > 200 | 0 | 200 | 200 | > 200 | 100 to 200 | 12.5 to 25 | > 200 | 12 | 200 | 12.5 to 25 | – | –
CN[C@@H]1[C@H](O)[C@H](NC)[C@H]2O[C@]3(O)[C@H](O[C@@H]2[C@H]1O)O[C@H](C)C[C@@]3(O)CNCCc1ccc(C)cc1 [compound 32, 3′-(R)-3′-[(4-Methyl)]Phenethylaminomethyl)]Dihydrospectinomycin Trihydrochloride] | > 200 | > 200 | > 200 | – | – | 3.1 to 6.3 | > 200 | 50 to 100 | 100 | – | 6.3 | 3.1 | – | 100 to 200 | 6.3 | ≥ 200 | – | 12.5 | 3.1 to 6.3 | ≥ 200 | MIC [4, 26]: 12.5 µg/mL; MIC [20]: 12.5 µg/mL; MIC ([12]; read-out: MIC TN022): 6.3 µg/mL; MIC ([12]; read-out: MIC TN026): 6.3 µg/mL; MIC ([13]; Staphylococcus aureus): 12.5 to 25 µg/mL; MIC ([21]; Enterococcus faecalis, ATCC33186, read-out: MIC E.f.): 12.5 µg/mL
CN[C@@H]1[C@H](O)[C@H](NC)C2O[C@]3(O)C(OC2[C@H]1O)O[C@H](C)C[C@@]3(O)CNCc1cccc(O)c1 (stereo partly drawn) [compound 35] | > 200 | > 200 | > 200 | 25 to 50 (≈ 53.2 to 106 µM) | 15 to 16 | 6.3 (≈ 13.4 µM) | > 200 | 6.3 to 12.5 (≈ 13.4 to 26.6 µM) | ≥ 200 | 30 | 25 (≈ 53.2 µM) | 50 (≈ 106 µM) | 25 to 50 (≈ 53.2 to 106 µM) | 200 (≈ 426 µM) | 0.8 to 1.6 (≈ 1.7 to 3.41 µM) | ≥ 200 | 16 | 25 (≈ 53.2 µM) | 0.4 to 0.8 (≈ 0.852 to 1.7 µM) | – | zone of inhibition at 4 µg/disc [22]: 18 mm; MIC [21, 27]: 12.5 µg/mL (≈ 26.6 µM)
CN[C@@H]1[C@H](O)[C@H](NC)[C@H]2O[C@]3(O)[C@H](O[C@@H]2[C@H]1O)O[C@H](C)C[C@@]3(O)CNc1ccccc1 [compound 30, 3′-(R)-3′-(phenylaminomethyl)dihydrospectinomycin Trihydrochloride] | > 200 | > 200 | > 200 | > 200 | 6 | ≥ 200 | > 200 | 50 | > 200 | 0 | ≥ 200 | > 200 | > 200 | 200 | 12.5 to 25 | > 200 | 7 | 100 to 200 | 12.5 to 25 | – | zone of inhibition at 4 µg/disc [22]: 6 mm
CN[C@@H]1[C@H](O)[C@H](NC)[C@H]2O[C@]3(O)[C@H](O[C@@H]2[C@H]1O)O[C@H](C)C[C@@]3(O)CNCCc1ccc(F)cc1 [compound 33, 3′-(R)-3′-(4-FLUOROphenethylaminomethyl)dihydrospectinomycin Trihydrochloride] | – | ≥ 200 | > 200 | – | – | 3.1 to 6.3 | 200 | 6.3 | – | – | – | 3.1 | 25 to 50 | 12.5 | – | – | – | 12.5 | – | > 200 | MIC [4, 26]: 12.5 to 25 µg/mL; MIC [20]: 12.5 µg/mL; MIC ([12]; read-out: MIC TN022): 6.3 µg/mL; MIC ([12]; read-out: MIC TN026): 6.3 µg/mL; MIC [21, 27]: 25 µg/mL
